One data set concerns human glioma U251 cells. Put plainly: MTT anti-tumor test in vitro, U251. It is filed as cell-based. The conditions noted are these: Homo sapiens, U-251, 48 h. An excerpt: (§1) A complete culture medium is used for diluting the above original solution into corresponding concentrations for later use.
(§2) Human cervical carcinoma Hela cells, human hepatoma BEL-7402 cells, mucinous Human epidermoid A549 lung cancer cells, human breast cancer MCF-7/S cells, human glioma U251 cells, and human normal embryonic kidney HEK-293 cells are purchased from USA, American Type Culture Collection (ATCC). All the tumor cells are used the DMEM medium (containing 10% FBS, 100 U/ml penicillin and 100 μg/ml streptomycin) for culturing and subculturing, and HEK-293 cells are using RPMI1640 medium (10% FBS, 100 U/ml penicillin, and 100 μg/ml streptomycin) for culturing and subculturing, wherein the culture condition is in a 5% CO2 incubator at 37° C.
(§3) Subculture six kinds of cells, which has a logarithmic growing period, adherent rate about 80%, and in good condition, such as human cervical carcinoma Hela cells, human hepatoma BEL-7402 cells, mucinous Human epidermoid A549 lung cancer cells, human breast cancer MCF-7/S cells, human glioma U251 cells, and human normal embryonic kidney HEK-293 cells. Discard the culture medium, rinse 1-2 times with PBS to remove serum, add 1 ml 0.25% Trypsin-0.01% EDTA (37° C. incubation) to digest for 1-2 minutes, add FBS culture medium to terminate the above digestion, centrifuge at a speed below 800 r/min for 2-3 minutes and discard the supernatant, re-suspended cells in 10% FBS medium, tack the cell suspension liquid for cell counting, adjust the density of the above liquid to 1×10^5/ml, then inoculate to a 96-holes plates (100 μl/hole), and then incubate in 5% CO2 incubator at 37° C. overnight. The next day add above cells to different concentrations of I-a, I-b, I-c and I-d, 100 μl/hole (its final concentration is respectively 30, 60, 120, 240, 480 μg/ml); meanwhile, set up the blank control group (0 μM), and establish 3 holes. Continuing the cultural process, discard the culture medium after 48 hours that the drug has been effected, add 100 μl PBS of 0.5 mg/ml MTT (PH 7.2) into each holes, after 4 hours culture, remove the culture medium by adherent cells express flipping method, add 100 μl of DMSO to each holes, oscillate it by micro-oscillation device for 5 minutes, and measure the OD value at 490 nm wavelength. Repeat the above experiment three times to get an average value. Calculate the inhibition rate (IR %) of the tumor cell proliferation in vitro from different concentrations of I-a, I-b, I-c, I-d by the following formula:
(§4) IR %=(1−ODsampale/ODcontrol)×100%
(§5) Use SPSS11.5 software to calculate the half inhibitory concentration IC50 of I-a, I-b, I-c and I-d. The results are shown in Table 2 to illustrate IC50 values (unit: μg/ml) of the four compounds.

On data set [1], the source says:
The 180 tumor-bearing mice are divided into 18 groups by the weigh of the mice, wherein each group has 10 mice (half male and half female). The drug delivery methods of each group are shown in Table 3 to illustrate eighteen groups of mice drug delivery situation.
Group 2 is the cyclophosphamide (CTX) group, and the mice of group 2 are only given the cyclophosphamide in the intraperitoneal of the mice on the second day of the tumor-bearing.
Group 3 to 18 groups are given the four compounds respectively, wherein the groups delivered 25 mg/kg drug are tail vein low-dose group, wherein the groups delivered 50 mg/kg drugs are the tail vein medium-dose group, wherein the groups delivered 100 mg/kg drugs are the tail vein high-dose group, wherein the groups delivered 200 mg/kg drugs are the oral enteral group. These mice from group 3 to 18 start the drug delivery on the second day of the tumor-bearing, and delivered once a day for 10 sequent days.
After the drug delivery, weight the mice weight, then execute the mice, and then weight the spleen and thymus weight by electronic weighting scale respectively. The spleen index and thymus index are the weight (mg) of mice spleen, thymus of each group/mice weight (g).

A short description of data set [2]: Solubility of compounds in solvents (Table 1). Format: physicochemical.
Data set [3] relates to human breast cancer MCF-7/S cells. Put plainly: MTT anti-tumor test in vitro, MCF-7/S. It is filed as cell-based. The conditions noted are these: Homo sapiens, MCF7S, 48 h, MCF-7 (MCF-7/S).
Text: as §1, §2, §3, §4, §5
(Formazan colour is commonly taken as a measure of viable cells.)

The mark [4] stands for this setting: average of three experiments ± SD.

≈ marks a conversion by molar mass, not a printed value.

A word on the IC50: it is the concentration that inhibits the measured activity by half. With `COc1ccc(/C=C/C(=O)O)c(O)c1CC=C(C)C` [I-a, (E)-2-hydroxy-4-methoxy-3-isopentenyl-cinnamic acid], the IC50 with human glioma U251 cells (setting [4]) was 181 ± 7.98 µg/mL (≈ 691 µM); in the data set with human glioma U251 cells (experiment 2) it was 173 µg/mL (≈ 660 µM); in the data set with human glioma U251 cells (experiment 3), 180 µg/mL (≈ 686 µM); in data set [3] (setting [4]) it was 225 ± 11.9 µg/mL (≈ 857 µM); in data set [3] (experiment 2), 216 µg/mL (≈ 823 µM); in data set [3] (experiment 3), 219 µg/mL (≈ 835 µM). Moreover, the “death during drug delivery” value in data set [1] (high-dose group, tail vein 100 mg/kg, 10 days) is given as “does not have any death”. The “splenomegaly of the tumor-bearing mice” value in data set [1] (mouse, in vivo) is listed as “no affect”. For the same compound, the Solubility result is given as “Soluble” in data set [2] (solvent 0.1% NaOH); “Soluble” in data set [2] (solvent Acetone); “Dissolved” in data set [2] (solvent Chloroform); “Soluble” in data set [2] (solvent DMSO); “Soluble” in data set [2] (solvent Ethanol); “Soluble” in data set [2] (solvent Methanol).

Consider `COc1ccc(/C=C/C(=O)O)c(OC)c1CC=C(C)C` [I-c, (E)-2,4-dimethoxy-3-isopentenyl-cinnamic acid], for which the IC50 came out at 195 ± 7.31 µg/mL (≈ 704 µM) with human glioma U251 cells (setting [4]); 202 µg/mL (≈ 731 µM) in the data set on human glioma U251 cells (experiment 1); 192 µg/mL (≈ 695 µM) in the data set with human glioma U251 cells (experiment 2); 188 µg/mL (≈ 680 µM) in the data set with human glioma U251 cells (experiment 3); 235 ± 5.68 µg/mL (≈ 849 µM) in data set [3] (setting [4]); 234 µg/mL (≈ 847 µM) in data set [3] (experiment 1). In addition, the IC50 worked out at 229 µg/mL (≈ 829 µM) in data set [3] (experiment 2) and 240 µg/mL (≈ 869 µM) in data set [3] (experiment 3). Moreover, the “effect near the tail vein of the mice and its surrounding tissue” value in data set [1] (mouse, in vivo) was “irritation or corrosive”. Also, the “splenomegaly of the tumor-bearing mice” value in data set [1] (mouse, in vivo) is “can cause the splenomegaly”. In addition, the Solubility entry is “Soluble” in data set [2] (solvent 0.1% NaOH); “Dissolved” in data set [2] (solvent Acetone); “Dissolved” in data set [2] (solvent Chloroform); “Soluble” in data set [2] (solvent DMSO); “Dissolved” in data set [2] (solvent Ethanol); “Soluble” in data set [2] (solvent Methanol).

Take `COc1ccc(/C=C\C(=O)O)c(OC)c1CC=C(C)C` [I-b, (Z)-2,4-dimethoxy-3-isopentenyl-cinnamic acid]: the IC50 with human glioma U251 cells (setting [4]) is 287 ± 9.58 µg/mL (≈ 1040 µM); in the data set on human glioma U251 cells (experiment 1), 277 µg/mL (≈ 1000 µM); with human glioma U251 cells (experiment 2) it was 284 µg/mL (≈ 1030 µM); in the data set on human glioma U251 cells (experiment 3), 298 µg/mL (≈ 1080 µM); in data set [3] (setting [4]), 311 ± 7.31 µg/mL (≈ 1130 µM); in data set [3] (experiment 1), 312 µg/mL (≈ 1130 µM). Besides, the figures for the IC50 in data set [3] (experiment 2) and in data set [3] (experiment 3) were 317 µg/mL (≈ 1150 µM) and 303 µg/mL (≈ 1100 µM), respectively. Also, the Solubility result in data set [2] (solvent 0.1% NaOH) is given as “Soluble”; in data set [2] (solvent Acetone), “Dissolved”; in data set [2] (solvent Chloroform), “Dissolved”; in data set [2] (solvent DMSO), “Soluble”; in data set [2] (solvent Ethanol), “Dissolved”; in data set [2] (solvent Methanol) it was “Soluble”.

These data come from patent US20110028758A1, “Trans-cinnamic acid derivative, its preparation mathod and the use” (priority 2007, published 2011).
